For three compounds, IC50 and apparent permeability results are on record in patent US20090318492A1, “INDOLE COMPOUNDS HAVING C4-ACIDIC SUBSTITUENTS AND USE THEREOF AS PHOSPHOLIPASE-A2 INHIBITORS” (priority 2005, published 2009).

Like-named read-outs stand apart in the source and are kept apart here.

Data set [1] deals with T1, mouse group 1B PLA2 (mps PLA2) (Mus musculus, UniProt Q9Z0Y2).
T1 construct: made in house; host or cells: E. coli
The data set is described as follows: Example 8 fluorimetric PLA2 inhibition assay (PPyrPM), mouse enzyme. It is filed as biochemical. The text has this: (§1) In this example, a fluorimetric assay procedure was used to evaluate the indole and indole-related compounds of the invention as inhibitors of group 1B phospholipase A2 (PLA2) from human, mouse and porcine. A description of this assay is found in articles: Leslie, C C and Gelb, M H (2004) Methods in Molecular Biology “Assaying phospholipase A2 activity”, 284:229-242; Singer, A G, et al. (2002) Journal of Biological Chemistry “Interfacial kinetic and binding properties of the complete set of human and mouse groups I, II, V, X, and XII secreted phospholipases A2”, 277:48535-48549, which are incorporated herein as references.
(§2) In general, this assay used a phosphatidylmethanol substrate with a pyrene fluorophore on the terminal end of the sn-2 fatty acyl chain. Without being bound by theory, close proximity of the pyrenes from neighboring phospholipids in a phospholipid vesicle caused the spectral properties to change relative to that of monomeric pyrene. Bovine serum albumin was present in the aqueous phase and captured the pyrene fatty acid when it is liberated from the glycerol backbone owing to the PLA2-catalyzed reaction. However, a potent inhibitor can inhibit the liberation of pyrene fatty acid from the glycerol backbone. […] The effect of a given inhibitor and inhibitor concentration on human, mouse and porcine phospholipase was determined.
Recombinant human and mouse group 1B PLA2 were cloned and expressed in E. coli as insoluble inclusion bodies. The inclusion bodies were isolated and purified by sonicating cell pellet in lysis buffer (50 mM Tris-HCl pH 7.0, 250 mM NaCl, 0.5% Triton 100), centrifugation at 12,000×g, and washing three times in washing buffer (20 mM Tris-HCl pH 7.0, 250 mM NaCl, 0.5% Triton 100). […]
(§3) The following procedure was performed to evaluate the inhibitory potency of the evaluated compounds. • 1. […]

Data set [2] deals with T2, human group 1B PLA2 (hps PLA2) (Homo sapiens, UniProt P04054).
T2 construct: made in house; host or cells: E. coli
The data set is described as follows: Example 8 fluorimetric PLA2 inhibition assay (PPyrPM), human enzyme. The format is biochemical. The settings on record: read-out: ILYPSA IC50 hps PLA2.
Excerpt: as §1
as §2, with “reaction.” for “reaction. However, a potent inhibitor can inhibit the liberation of pyrene fatty acid from the glycerol backbone.”, “determined. […]” for “determined.”
as §3

The target in data set [3] is T3, Porcine group 1B phospholipase A2 (pps PLA2) (Sus scrofa, UniProt P00592).
T3 construct: purchased
The data set is described as follows: Example 8 fluorimetric PLA2 inhibition assay (PPyrPM), porcine enzyme. The format is biochemical. The settings on record: read-out: ILYPSA IC50 pps PLA2.
Excerpt: as §1
In general, this assay used a phosphatidylmethanol substrate with a pyrene fluorophore on the terminal end of the sn-2 fatty acyl chain. […] The effect of a given inhibitor and inhibitor concentration on human, mouse and porcine phospholipase was determined. […]
The following procedure was performed to evaluate the inhibitory potency of the evaluated compounds. • 1. […] The fluorescence was read using an excitation of 342 nm and an emission of 395 nm.
Evaluated compounds were tested in duplicate and their values were averaged to plot the inhibition curve and calculate the IC50. […] The IC50 was calculated using the BioDataFit 1.02 (Four Parameter Model) software package. […]

A further data set has as its system Caco-2 cells. The data set is described as follows: Example 6B Caco-2 permeability study. It is filed as in vitro ADME, human. The following applies: 10 uM in apical wells, paracellular transport control. Here is the method: The culture medium was refreshed every 48 hours.
Papp=(dQ/dt)×(1/C0)×(1/A)
Background: Caco-2 monolayers are a common model of the intestinal barrier.

T1 sequence (Q9Z0Y2 23-146): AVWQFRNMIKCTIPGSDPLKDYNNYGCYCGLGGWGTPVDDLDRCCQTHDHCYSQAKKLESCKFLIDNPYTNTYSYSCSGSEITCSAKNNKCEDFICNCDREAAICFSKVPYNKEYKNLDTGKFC
T2 sequence (P04054 23-148): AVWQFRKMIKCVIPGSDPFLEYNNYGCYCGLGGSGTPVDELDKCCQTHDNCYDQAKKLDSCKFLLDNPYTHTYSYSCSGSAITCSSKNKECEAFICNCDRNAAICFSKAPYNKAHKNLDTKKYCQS
T3 sequence (P00592 23-146): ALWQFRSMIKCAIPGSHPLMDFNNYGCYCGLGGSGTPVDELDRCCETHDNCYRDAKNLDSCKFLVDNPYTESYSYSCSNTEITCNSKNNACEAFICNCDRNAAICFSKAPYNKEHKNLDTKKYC

As for “2-(3-Aminooxalyl-1-{12-[3-aminooxalyl-4-(1-carboxy-2-methyl-propoxy)-2-methyl-indol-1-yl]-dodecyl}-2-methyl-1H-indol-4-yloxy)-3-methyl-butyric acid [ILY-V-44]”, the IC50 (as a rule, the concentration needed to halve the response being measured) in data set [1] (read-out: ILYPSA IC50 mps PLA2) came out at 0.48 µM; in data set [2], 0.28 µM; in data set [3], 0.05 µM.

Consider `Cc1c(C(=O)C(N)=O)c2c(OC(C(=O)O)C(C)C)cccc2n1CCCCCCCCCCCCOc1ccccc1OCCCCCCCCCCCCn1c(C)c(C(=O)C(N)=O)c2c(OC(C(=O)O)C(C)C)cccc21` (centres unmarked) [ILY-V-33, 2-{3-Aminooxalyl-1-[12-(2-{12-[3-aminooxalyl-4-(1-carboxy-2-methyl-propoxy)-2-methyl-indol-1-yl]-dodecyloxy}-phenoxy)-dodecyl]-2-methyl-1H-indol-4-yloxy}-3-methyl-butyric acid], for which the IC50 in data set [1] amounted to 0.3 µM.

With Lucifer Yellow, in the data set with Caco-2 cells, the apparent permeability result was “around 2.82×10^−7+/−0.37×10^−7 cm/s”.
